Source: PMC4520625 (Biochemistry, 2015)
pKd: −log10 of the molar value.

Tests used:
galectin-3 CRD = galectin-3 CRD (Homo sapiens, UniProt P17931); test: Isothermal titration calorimetry, galectin-3 CRD; type: binding
galectin-3 (full-length) = galectin-3 (full-length) (Homo sapiens, UniProt P17931); test: Isothermal titration calorimetry, full-length galectin-3; type: binding
[1] = molecular target: N-terminal domain of galectin-9 (Homo sapiens, UniProt O00182); type: cell-based; settings: CHO wild-type cells, 1 mM
Chain of N-terminal domain of galectin-9 (O00182 1-148): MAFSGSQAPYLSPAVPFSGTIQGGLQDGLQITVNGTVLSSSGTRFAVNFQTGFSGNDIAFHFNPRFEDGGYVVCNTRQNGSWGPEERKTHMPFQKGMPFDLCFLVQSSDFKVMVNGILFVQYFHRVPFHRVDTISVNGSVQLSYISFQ

galectin-3 = galectin-3 (Homo sapiens, UniProt P17931); test: Cell-based assay: inhibition of galectin-3 surface staining of SW480 cells; settings: peptides at up to 1 mM
Chain of galectin-3 (P17931 whole entry): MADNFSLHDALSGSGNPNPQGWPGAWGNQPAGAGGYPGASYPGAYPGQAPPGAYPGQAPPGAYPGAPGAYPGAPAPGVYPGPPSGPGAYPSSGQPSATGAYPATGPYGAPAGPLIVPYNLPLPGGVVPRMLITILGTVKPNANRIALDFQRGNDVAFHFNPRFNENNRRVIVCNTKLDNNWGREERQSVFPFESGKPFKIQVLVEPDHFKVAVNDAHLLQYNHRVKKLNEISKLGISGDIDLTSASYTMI

Chain of galectin-3 CRD (P17931 118-248 limits assumed): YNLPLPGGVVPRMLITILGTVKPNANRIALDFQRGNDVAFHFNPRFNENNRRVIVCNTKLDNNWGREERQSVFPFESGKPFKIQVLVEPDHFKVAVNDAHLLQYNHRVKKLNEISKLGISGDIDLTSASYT
Chain of galectin-3 (full-length) (P17931 whole entry, the tested form may be a part): as the sequence (P17931 whole entry) above

| pKd (galectin-3 CRD) | n (stoichiometry) (galectin-3 CRD; galectin-3 CRD, ITC) | –TΔS (galectin-3 CRD; galectin-3 CRD, ITC) | –ΔG (galectin-3 CRD; galectin-3 CRD, ITC) | –ΔH (galectin-3 CRD; galectin-3 CRD, ITC) | Ka (galectin-3 CRD; galectin-3 CRD, ITC, 25 °C, pH 7.2) | pKd (galectin-3 (full-length)) | n (stoichiometry) (galectin-3 (full-length); full-length galectin-3, ITC) | –TΔS (galectin-3 (full-length); full-length galectin-3, ITC) | –ΔH (galectin-3 (full-length); full-length galectin-3, ITC) | Ka (galectin-3 (full-length); full-length galectin-3, ITC, 25 °C, pH 7.2) | inhibition of galectin-9 binding to cells (in words) [1] | inhibition of galectin-3 binding to cells (in words) (galectin-3) | SMILES |
| --- | --- | --- | --- | --- | --- | --- | --- | --- | --- | --- | --- | --- | --- |
| 3.61 | 0.93 | 9.11 kcal/mol | 4.94 kcal/mol | 14.05 kcal/mol | 0.40 ×10^–4 M^–1 | 3.61 | 0.82 | 3.30 kcal/mol | 8.74 kcal/mol | 0.40 ×10^–4 M^–1 |  |  | CC(=O)N[C@H]1C(O)O[C@H](CO)[C@H](O)[C@@H]1O[C@@H]1O[C@H](CO)[C@H](O)[C@H](O)[C@H]1O (stereo partly drawn) [TF, 2-acetamido-2-deoxy-3-O-(β-D-galactopyranosyl)-D-galactopyranose] |
|  |  |  |  |  |  |  |  |  |  |  | inhibitory |  | OC[C@H]1O[C@@H](O[C@H]2[C@H](O)[C@@H](O)C(O)O[C@@H]2CO)[C@H](O)[C@@H](O)[C@H]1O (mixture of isomers) [Lac, lactose] |
|  |  |  |  |  |  |  |  |  |  |  | inhibitory | less active than Lac | CC(=O)N[C@H]1C(O)O[C@H](CO)[C@H](O)[C@@H]1O (some centres unmarked) [GalNAc, N-acetylgalactosamine] |
